# Experimental data taken from patent US12568967B2, “Compositions comprising pyridine carboxylate herbicides with synthetic auxin herbicides or auxin transport inhibitors” (priority 2018, dated 2026).
# Read-outs that look alike come from different tables or passages of the source.
# Columns and labels:
# [1] = tested on: Papaver rhoeas (corn poppy, PAPRH); assay: Greenhouse postemergence trial PAPRH; type: in vivo; details: for % visual injury: c1-3 Compound A 7.5/10/15
# [2] = tested on: Veronica persica (bird's-eye speedwell, VERPE); assay: Greenhouse postemergence trial VERPE; type: in vivo; details: for % visual injury: c1-3 Compound A 7.5/10/15
# [3] = tested on: Triticum aestivum (winter wheat, TRZAW); assay: Greenhouse postemergence crop phytotoxicity TRZAW; type: in vivo; details: for % visual injury Obs: TRZAW; for % visual injury (crop phytotoxicity): c1-3 Compound A 7.5/10/15
# [4] = tested on: Viola arvensis (field violet, VIOAR); assay: Greenhouse postemergence trial VIOAR; type: in vivo; details: for % visual injury: c1-3 Compound A 7.5/10/15
# [5] = tested on: Triticum aestivum (spring wheat, TRZAS); type: in vivo; details: for % visual injury Obs: TRZAS; for % visual injury (crop phytotoxicity): c1-3 Compound A 7.5/10/15
# Description: (§1) Seeds of the desired test plant species were planted in a 90:10% v/v (volume/volume) mixture of PRO-MIX® BX (Premier Tech Horticulture, Quakertown, PA, USA) and PROFILE® GREENS GRADE™ (Profile Products LLC, Buffalo Grove, IL, USA) planting mixture, which typically has a pH of 5.2 to 6.2 and an organic matter content of at least 50 percent, in plastic pots with a surface area of 103.2 square centimeters (cm^2). […] The plants were grown for 7-36 days (d) in a greenhouse with an approximate 14-hour (h) photo-period which was maintained at about 23° C. during the day and 22° C. during the night. Nutrients and water were added on a regular basis and supplemental lighting was provided with overhead metal halide 1000-Watt lamps as necessary. The plants were employed for testing when they reached the second or third true leaf stage.
# (§2) Emulsifiable concentrates of each of each pyridine carboxylate herbicide (Compound A or Compound B) were prepared at 100 grams acid equivalent per liter (g ae/L). The emulsifiable concentrates also included a safener, cloquintocet-mexyl, at 120 grams active ingredient per liter (g ai/L), unless otherwise noted below. An aliquot of each emulsifiable concentrate was placed in a 25 mL glass vial and diluted with an aqueous mixture of 1.25% (v/v) ACTIROB® B esterified rapeseed oil (Bayer Crop Science, Research Triangle Park, NC, USA) or MSO® Concentrate with LECI-TECH® methylated soybean oil (Loveland Products, Loveland, CO, USA) to obtain concentrated stock solutions at the highest application rate for each herbicide, based upon a 12 milliliter (mL) application volume at a rate of 187 liters per hectare (L/ha). The concentrated stock solutions were further diluted with an aqueous mixture of 1.25% v/v ACTIROB® B or MSO® Concentrate with LECI-TECH® to obtain stock solutions at reduced application rates for each herbicide. Spray solutions of the herbicide combinations (Compound A or Compound B plus synthetic auxin herbicide or auxin transport inhibitor) were prepared by adding weighed amounts or aliquots of the synthetic auxin herbicide or auxin transport inhibitor to the stock solutions of Compound A or Compound B to form 12-mL spray solutions in two-way combinations.
# (§3) The spray solutions were applied to the plant material with an overhead Mandel track sprayer equipped with 8002E nozzles calibrated to deliver 187 L/ha over an application area of 0.503 square meters (m^2) at a spray height of 18 inches (43 centimeters (cm)) above the average plant canopy. Control plants were sprayed in the same manner with the solvent blank. All pyridine carboxylate herbicide (component a) application rates are given as “g ae/ha” and all synthetic auxin herbicide or auxin transport inhibitor (component b) application rates are given as “g ai/ha.”
# (§4) The treated plants and control plants were placed in a greenhouse as described above and watered by sub-irrigation to prevent wash-off of the test compounds. After 20-22 d, the condition of the test plants as compared with that of the control plants was determined visually and scored on a scale of 0 to 100 percent where 0 corresponds to no injury and 100 corresponds to complete kill.
# [6] = tested on: Brassica napus (winter rape, BRSNW); assay: Greenhouse postemergence trial BRSNW; type: in vivo; details: Brassica napus, post-emergence, read-out: % visual injury Obs
# Description: as §1, §2, §3, §4
# [7] = tested on: Sinapis arvensis (wild mustard, SINAR); assay: Greenhouse postemergence trial SINAR; type: in vivo; details: Mutarda arvensis, post-emergence, SINAR, read-out: % visual injury Obs
# Description: The plants were grown for 7-36 days (d) in a greenhouse with an approximate 14-hour (h) photo-period which was maintained at about 23° C. during the day and 22° C. during the night. Nutrients and water were added on a regular basis and supplemental lighting was provided with overhead metal halide 1000-Watt lamps as necessary. The plants were employed for testing when they reached the second or third true leaf stage.
# The emulsifiable concentrates also included a safener, cloquintocet-mexyl, at 120 grams active ingredient per liter (g ai/L), unless otherwise noted below.
# Control plants were sprayed in the same manner with the solvent blank. All pyridine carboxylate herbicide (component a) application rates are given as “g ae/ha” and all synthetic auxin herbicide or auxin transport inhibitor (component b) application rates are given as “g ai/ha.”
# as §4
# [8] = tested on: Kochia scoparia (kochia, KCHSC); assay: Greenhouse postemergence trial KCHSC; type: in vivo; details: Bassia scoparia, post-emergence, KCHSC, read-out: % visual injury Obs
# [9] = tested on: Stellaria media (chickweed, STEME); assay: Greenhouse postemergence trial STEME; type: in vivo; details: for % visual injury: c1-3 Compound A 7.5/10/15
# Description: as §1, §2, §3, §4
# [10] = tested on: Cirsium arvense (Canadian thistle, CIRAR); assay: Greenhouse postemergence trial CIRAR; type: in vivo; details: Cirsium arvense, post-emergence, CIRAR, read-out: % visual injury Obs
# [11] = tested on: Viola tricolor (wild pansy, VIOTR); assay: Greenhouse postemergence trial VIOTR; details: for % visual injury: c1-3 Compound A 7.5/10/15;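 for all read-outs here: greenhouse plants sprayed at second to third true leaf stage, injury rated visually after 20-22 d against solvent-blank sprayed controls, 0 meaning no injury and 100 complete kill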
# [12] = tested on: Polygonum convolvulus (wild buckwheat, POLCO); assay: Greenhouse postemergence trial POLCO; type: in vivo; details: Fallopia convolvulus, post-emergence, read-out: % visual injury Obs
# [13] = tested on: Cyanus segetum (cornflower, CENCY); assay: Greenhouse postemergence trial CENCY; type: in vivo; details: for % visual injury: c1-3 Compound A 7.5/10/15
# [14] = tested on: Hordeum vulgare (winter barley, HORVW); assay: Greenhouse postemergence crop phytotoxicity HORVW; type: in vivo; details: for % visual injury Obs: HORVW; for % visual injury (crop phytotoxicity): c1-3 Compound A 7.5/10/15
# [15] = tested on: Matricaria chamomilla (wild chamomile, MATCH); assay: Greenhouse postemergence trial MATCH; type: in vivo; details: Matricaria chamomilla, post-emergence, MATCH, read-out: % visual injury Obs;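 note: greenhouse plants sprayed at second to third true leaf stage, injury rated by eye 20-22 d later versus solvent-blank controls on 0–100 scale, 0 no injury, 100 complete kill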
# [16] = tested on: Anthemis arvensis (field chamomile, ANTAR); assay: Greenhouse postemergence trial ANTAR; type: in vivo; details: for % visual injury: c1-3 Compound A 7.5/10/15
# [17] = tested on: Papaver rhoeas (corn poppy), herbicide-resistant (PAPRH-R); assay: Greenhouse postemergence trial PAPRH-R; type: in vivo; details: for % visual injury: c1-3 Compound A 7.5/10/15
# Description: as §1, §2, §3, §4
# [18] = tested on: Hordeum vulgare (spring barley, HORVS); type: in vivo; details: for % visual injury Obs: HORVS; for % visual injury (crop phytotoxicity): c1-3 Compound A 7.5/10/15
# [19] = tested on: Veronica hederifolia (ivyleaf speedwell, VERHE); assay: Greenhouse postemergence trial VERHE; type: in vivo; details: for % visual injury: c1-3 Compound A 7.5/10/15
# Description: as §1, §2, §3, §4
# [20] = tested on: Lamium purpureum (purple deadnettle, LAMPU); assay: Greenhouse postemergence trial LAMPU; details: for % visual injury: c1-3 Compound A 7.5/10/15
# [21] = tested on: Matricaria inodora (false chamomile, MATIN); assay: Greenhouse postemergence trial MATIN; type: in vivo; details: for % visual injury: c1-3 Compound A 7.5/10/15
# Description: as §1, §2, §3, §4
# [22] = tested on: Galium aparine (cleavers, GALAP); assay: Greenhouse postemergence trial GALAP; type: in vivo; details: c1-3 Compound A 7.5/10/15
# Description: as §1, §2, §3, §4
# [23] = tested on: Matricaria discoidea (pineapple weed, MATMT); assay: Greenhouse postemergence trial MATMT; type: in vivo; details: for % visual injury: c1-3 Compound A 7.5/10/15
# Description: as §1, §2, §3, §4
# [24] = tested on: Capsella bursa-pastoris (shepherd's purse, CAPBP); assay: Greenhouse postemergence trial CAPBP; type: in vivo; details: for % visual injury: c1-3 Compound A 7.5/10/15
# [25] = tested on: Salsola kali (Russian thistle, SASKR); assay: Greenhouse postemergence trial SASKR; type: in vivo; details: Salsola kali, post-emergence, SASKR, read-out: % visual injury Obs;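 note: greenhouse plants sprayed at second or third true leaf stage, injury rated by eye after 20-22 d against solvent-blank controls, 0 meaning no injury, 100 complete kill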
# [26] = Papaver rhoeas, post-emergence, read-out: % visual injury Obs
# [27] = c4 Aminopyralid 5, c5-7 A 7.5/10/15 + Aminopyralid 5 g/ha
# [28] = Viola tricolor, post-emergence, read-out: % visual injury Obs
# [29] = Lamium purpureum, post-emergence, read-out: % visual injury Obs
# [30] = c4 Halauxifen-methyl 6, c5-7 A 7.5/10/15 + Halauxifen-methyl 6 g/ha
structure (smiles),measurement,setting,value
"Nc1cc(Cl)nc(C(=O)O)c1Cl [Aminopyralid, aminopyralid, reference compound]",pest or weed control at 10 g/ha,[1]; [26],65%
same,% visual injury,[1]; [27],30%
same,pest or weed control at 10 g/ha,"[2]; Veronica persica, post-emergence, read-out: % visual injury Obs",10%
same,% visual injury,[2]; [27],0%
same,% visual injury Obs,[3]; Aminopyralid 10 g/ha,0%
same,% visual injury (crop phytotoxicity),[3]; [27],0%
same,pest or weed control at 10 g/ha,"[4]; Viola arvensis, post-emergence, read-out: % visual injury Obs",10%
same,% visual injury,[4]; [27],25%
same,% visual injury Obs,[5]; Aminopyralid 10 g/ha,0%
same,% visual injury (crop phytotoxicity),[5]; [27],0%
same,plant injury at 10 g/ha,[6],10%
same,pest or weed control at 10 g/ha,[7]; Aminopyralid 10 g/ha,20%
same,pest or weed control at 10 g/ha,[8]; Aminopyralid 10 g/ha,10%
same,pest or weed control at 10 g/ha,"[9]; Stellaria media, post-emergence, read-out: % visual injury Obs",5%
same,% visual injury,[9]; [27],0%
same,pest or weed control at 10 g/ha,[10]; Aminopyralid 10 g/ha,60%
same,pest or weed control at 10 g/ha,[11]; [28],10%
same,% visual injury,[11]; [27],0%
same,pest or weed control at 10 g/ha,[12],75%
same,pest or weed control at 10 g/ha,"[13]; Centaurea cyanus, post-emergence, read-out: % visual injury Obs",65%
same,% visual injury,[13]; [27],50%
same,% visual injury Obs,[14]; Aminopyralid 10 g/ha,0%
same,% visual injury (crop phytotoxicity),[14]; [27],0%
same,pest or weed control at 10 g/ha,[15]; Aminopyralid 10 g/ha,10%
same,pest or weed control at 10 g/ha,"[16]; Anthemis arvensis, post-emergence, read-out: % visual injury Obs",60%
same,% visual injury,[16]; [27],10%
same,pest or weed control at 10 g/ha,[17]; [26],65%
same,% visual injury,[17]; [27],50%
same,% visual injury Obs,[18]; Aminopyralid 10 g/ha,0%
same,% visual injury (crop phytotoxicity),[18]; [27],0%
same,pest or weed control at 10 g/ha,"[19]; Veronica hederifolia, post-emergence, read-out: % visual injury Obs",25%
same,% visual injury,[19]; [27],0%
same,pest or weed control at 10 g/ha,[20]; [29],10%
same,% visual injury,[20]; [27],0%
same,pest or weed control at 10 g/ha,"[21]; Tripleurospermum inodorum, post-emergence, read-out: % visual injury Obs",60%
same,% visual injury,[21]; [27],10%
same,% visual injury,[22]; [27],60%
same,pest or weed control at 10 g/ha,"[23]; Matricaria discoidea, post-emergence, read-out: % visual injury Obs",0%
same,% visual injury,[23]; [27],0%
same,pest or weed control at 10 g/ha,"[24]; Capsella bursa-pastoris, post-emergence, read-out: % visual injury Obs",0%
same,% visual injury,[24]; [27],0%
same,pest or weed control at 10 g/ha,[25]; Aminopyralid 10 g/ha,20%
"COC(=O)c1nc(-c2ccc(Cl)c(OC)c2F)cc(N)c1Cl [Halauxifen-methyl, halauxifen-methyl, reference compound]",pest or weed control at 3 g/ha,"[1]; Papaver rhoeas, post-emergence, PAPRH, Halauxifen-methyl 3 g/ha, read-out: % visual injury Obs",70%
same,% visual injury,[1]; [30],70%
same,pest or weed control at 3 g/ha,"[2]; Veronica persica, post-emergence, VERVE, Halauxifen-methyl 3 g/ha, read-out: % visual injury Obs",20%
same,% visual injury,[2]; [30],10%
same,% visual injury Obs,[3]; Halauxifen-methyl 3 g/ha,0%
same,% visual injury (crop phytotoxicity),[3]; [30],0%
same,pest or weed control at 3 g/ha,"[4]; Viola arvensis, post-emergence, VIOAR, Halauxifen-methyl 3 g/ha, read-out: % visual injury Obs",10%
same,% visual injury,[4]; [30],5%
same,% visual injury Obs,[5]; Halauxifen-methyl 3 g/ha,0%
same,% visual injury (crop phytotoxicity),[5]; [30],0%
same,plant injury at 3 g/ha,"[6]; BRSNW, Halauxifen-methyl 3 g/ha",30%
same,pest or weed control at 3 g/ha,[7]; Halauxifen-methyl 3 g/ha,70%
same,pest or weed control at 3 g/ha,[8]; Halauxifen-methyl 3 g/ha,50%
same,pest or weed control at 3 g/ha,"[9]; Stellaria media, post-emergence, STEME, Halauxifen-methyl 3 g/ha, read-out: % visual injury Obs",30%
same,% visual injury,[9]; [30],65%
same,pest or weed control at 3 g/ha,[10]; Halauxifen-methyl 3 g/ha,65%
same,pest or weed control at 3 g/ha,[11]; [28],60%
same,% visual injury,[11]; [30],10%
same,pest or weed control at 3 g/ha,"[12]; POLCO, Halauxifen-methyl 3 g/ha",80%
same,pest or weed control at 3 g/ha,"[13]; Centaurea cyanus, post-emergence, CENCY, Halauxifen-methyl 3 g/ha, read-out: % visual injury Obs",90%
same,% visual injury,[13]; [30],97%
same,% visual injury Obs,[14]; Halauxifen-methyl 3 g/ha,0%
same,% visual injury (crop phytotoxicity),[14]; [30],0%
same,pest or weed control at 3 g/ha,[15]; Halauxifen-methyl 3 g/ha,10%
same,pest or weed control at 3 g/ha,"[16]; Anthemis arvensis, post-emergence, ANTAR, Halauxifen-methyl 3 g/ha, read-out: % visual injury Obs",50%
same,% visual injury,[16]; [30],40%
same,pest or weed control at 3 g/ha,"[17]; Papaver rhoeas, post-emergence, PAPRH-R, Halauxifen-methyl 3 g/ha, read-out: % visual injury Obs",65%
same,% visual injury,[17]; [30],60%
same,% visual injury Obs,[18]; Halauxifen-methyl 3 g/ha,0%
same,% visual injury (crop phytotoxicity),[18]; [30],0%
same,pest or weed control at 3 g/ha,"[19]; Veronica hederifolia, post-emergence, VERHE, Halauxifen-methyl 3 g/ha, read-out: % visual injury Obs",10%
same,% visual injury,[19]; [30],10%
same,pest or weed control at 3 g/ha,[20]; [29],97%
same,% visual injury,[20]; [30],85%
same,pest or weed control at 3 g/ha,"[21]; Tripleurospermum inodorum, post-emergence, MATIN, Halauxifen-methyl 3 g/ha, read-out: % visual injury Obs",0%
same,% visual injury,[21]; [30],10%
same,% visual injury,[22]; [30],95%
same,pest or weed control at 3 g/ha,"[23]; Matricaria discoidea, post-emergence, MATMT, Halauxifen-methyl 3 g/ha, read-out: % visual injury Obs",0%
same,% visual injury,[23]; [30],65%
same,pest or weed control at 3 g/ha,"[24]; Capsella bursa-pastoris, post-emergence, CAPBP, Halauxifen-methyl 3 g/ha, read-out: % visual injury Obs",75%
same,% visual injury,[24]; [30],70%
same,pest or weed control at 3 g/ha,[25]; Halauxifen-methyl 3 g/ha,50%
